Values quoted from earlier work as cited in US5270047A, “Local delivery of dipyridamole for the treatment of proliferative diseases” (priority 1991, dated 1993).

Test system: vascular restenosis
Settings: current pharmacologic therapies after PTCA, atherectomy, laser angioplasty, bypass graft surgery; cited from earlier work

Compound: CC(=O)Oc1ccccc1C(=O)O [aspirin]
- effect for the treatment and prevention of vascular restenosis: ineffective for the treatment and prevention of vascular restenosis

Compound: O=c1ccc2ccccc2o1 [coumarin]
- effect for the treatment and prevention of vascular restenosis: ineffective for the treatment and prevention of vascular restenosis

Compound: CCCCC[C@H](O)/C=C/[C@@H]1[C@H]2C/C(=C/CCCC(=O)O)O[C@H]2C[C@H]1O [prostacyclin]
- effect for the treatment and prevention of vascular restenosis: ineffective for the treatment and prevention of vascular restenosis

Compound: heparin
- effect for the treatment and prevention of vascular restenosis: ineffective for the treatment and prevention of vascular restenosis

Compound: low molecular weight heparin
- effect for the treatment and prevention of vascular restenosis: ineffective for the treatment and prevention of vascular restenosis
